“And” between values parts separate entries of the source, which are not always exact repeats. Identical values can stand only once. Like-named read-outs stand apart in the source and are kept apart here.
Experiments:
p38α [1] = target: T1, p38α (Homo sapiens, UniProt Q16539); assay: ADP-Glo Kinase Assay, p38α MAP kinase inhibition; format: biochemical; conditions: read-out: p38α MAP kinase inhibitory activity IC50
Method: The capacity of brominated tyrosine derivatives to inhibit p38α activity was evaluated using the ADP-Glo Kinase Assay.

PC9 cells = assay: MTT anti-proliferation assay, PC9 cells; format: cell-based, human; conditions: for MTT, PC9, value relative to control (=100), single replicate: 24 h
Method: (§1) To evaluate the tumor-selective activity of compounds 4l and 4m, dose–response studies were performed on wild-type PC9 and gefitinib-resistant PC9/GR cell lines. […] Subtoxic concentrations of 25, 50, and 75 μM were employed to ensure specificity for drug-resistant phenotypes while preserving normal cell viability. […] To assess long-term proliferative potential, clonogenic survival assays were performed. Cells pretreated with 4l (24 h) were trypsinized to generate single-cell suspensions, plated at 300 cells/well, and cultured for 14 days. […] Cell migration ability was evaluated by the scratch healing assay. […] To evaluate the pro-apoptotic efficacy of 4l, we employed a dual-staining approach using Annexin V-FITC and propidium iodide (PI) for quadrant-specific quantification of programmed cell death. Annexin V binds externalized phosphatidylserine (PS), a hallmark of early apoptosis, while PI permeabilization discriminates late-stage apoptotic or necrotic cells.
(§2) The human normal lung epithelial cell line BEAS-2B, non-small cell lung carcinoma (NSCLC) cell line PC9, and gefitinib-resistant PC9/GR cell line were purchased from Procell Life Science & Technology Co., Ltd. (Wuhan, China). All cell lines were maintained in RPMI-1640 medium (BI, Beit Haemek, Mateh Asher, Israel) supplemented with 10% fetal bovine serum (FBS, Gibco, Thermo Fisher Scientific, Waltham, MA, USA) and 1% penicillin–streptomycin–amphotericin B sterile solution (Solarbio, Beijing, China). Cells were cultured at 37 °C in a humidified incubator with 5% CO2. For subculturing, cells were harvested using trypsin-EDTA solution upon reaching 70–80% confluence and resuspended at appropriate densities for subsequent experiments.
(§3) MTT: Cells (5 × 10^4/mL) were treated with 4l (25–100 μM, 24–48 h), incubated with MTT (10 μL/well, 4–6 h), and dissolved in DMSO. Absorbance (490 nm) was measured to assess viability.

PC9/GR cells = assay: MTT anti-proliferation assay, gefitinib-resistant PC9/GR cells; format: cell-based, human; conditions: for MTT, PC9/GR, value relative to control (=100), single replicate: 24 h
Method: as §1, §2, §3

p38α [2] = target: T1, p38α; set-up: method as in PMID 30642059; conditions: compounds 6a–6o synthesized in previous work; read-out: p38α MAP kinase inhibitory activity IC50; cited from earlier work

T1 sequence (Q16539 whole entry): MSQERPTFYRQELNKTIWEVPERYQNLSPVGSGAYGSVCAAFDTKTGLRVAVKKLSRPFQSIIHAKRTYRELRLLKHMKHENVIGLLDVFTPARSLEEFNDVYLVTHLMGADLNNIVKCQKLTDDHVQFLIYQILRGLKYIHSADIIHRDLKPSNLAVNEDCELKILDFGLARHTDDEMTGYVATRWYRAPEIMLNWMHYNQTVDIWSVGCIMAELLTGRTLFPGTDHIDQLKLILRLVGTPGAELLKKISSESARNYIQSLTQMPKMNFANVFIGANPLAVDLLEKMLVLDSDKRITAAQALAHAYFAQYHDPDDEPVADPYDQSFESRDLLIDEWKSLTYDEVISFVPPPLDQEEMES

SMILES	IC50 (p38α [1]) [nM]	further results
COc1ccc(NC(=O)NCCc2cc(Br)c(O)c(Br)c2)cc1 [4a, 1-(3,5-dibromo-4-hydroxyphenethyl)-3-(4-methoxyphenyl)urea]	265 ± 20.7	
CCOc1ccc(NC(=O)NCCc2cc(Br)c(O)c(Br)c2)cc1 [4b, 1-(3,5-dibromo-4-hydroxyphenethyl)-3-(4-ethoxyphenyl)urea]	170 ± 12.1	
CCCOc1ccc(NC(=O)NCCc2cc(Br)c(O)c(Br)c2)cc1 [4c, 1-(3,5-dibromo-4-hydroxyphenethyl)-3-(4-propoxyphenyl)urea]	297 ± 17.5	
CCCCOc1ccc(NC(=O)NCCc2cc(Br)c(O)c(Br)c2)cc1 [4d, 1-(4-butoxyphenyl)-3-(3,5-dibromo-4-hydroxyphenethyl)urea]	914 ± 44.3	
O=C(NCCc1cc(Br)c(O)c(Br)c1)Nc1ccc(OCCCN2CCOCC2)cc1 [4g, 1-(3,5-dibromo-4-hydroxyphenethyl)-3-(4-(3-morpholinopropoxy)phenyl)urea]	167 ± 13.6	
CC(C)Oc1ccc(NC(=O)NCCc2cc(Br)c(O)c(Br)c2)cc1 [4h, 1-(3,5-dibromo-4-hydroxyphenethyl)-3-(4-isopropoxyphenyl)urea]	850 ± 32.7	
O=C(NCCc1cc(Br)c(O)c(Br)c1)Nc1cccc(Cl)c1 [4i, 1-(3-chlorophenyl)-3-(3,5-dibromo-4-hydroxyphenethyl)urea]	13.9 ± 2.7	
O=C(NCCc1cc(Br)c(O)c(Br)c1)Nc1ccccc1Cl [4j, 1-(2-chlorophenyl)-3-(3,5-dibromo-4-hydroxyphenethyl)urea]	74.4 ± 13	
O=C(NCCc1cc(Br)c(O)c(Br)c1)Nc1ccc(Br)cc1 [4k, 1-(4-bromophenyl)-3-(3,5-dibromo-4-hydroxyphenethyl)urea]	51.1 ± 9.5	
O=C(NCCc1cc(Br)c(O)c(Br)c1)Nc1ccccc1F [4m, 1-(3,5-dibromo-4-hydroxyphenethyl)-3-(2-fluorophenyl)urea]	10.2 ± 2.3	MTT, PC9, value relative to control (=100), single replicate (PC9 cells; 25 (μM)): 72.71 and 78.44 and 89.41 and 73.662; MTT, PC9, value relative to control (=100), single replicate (PC9 cells; 50 (μM)): 73.32 and 75.35 and 64.23 and 80.16; MTT, PC9, value relative to control (=100), single replicate (PC9 cells; 75 (μM)): 63.32 and 73.36 and 69.44 and 65.21; MTT, PC9, value relative to control (=100), single replicate (PC9 cells; 100 (μM)): 61.89 and 69.88 and 70.31 and 63.67; IC50 (PC9 cells; Homo sapiens, PC-9, wild-type PC9, MTT, 24-hour treatment, 0–100 μM, read-out: IC50, growth inhibition): 55500 nM; MTT, PC9/GR, value relative to control (=100), single replicate (PC9/GR cells; 25 (μM)): 62.45 and 66.61 and 79.63 and 68.61; MTT, PC9/GR, value relative to control (=100), single replicate (PC9/GR cells; 50 (μM)): 61.78 and 67.43 and 60.72 and 69.73; MTT, PC9/GR, value relative to control (=100), single replicate (PC9/GR cells; 75 (μM)): 48.89 and 53.34 and 39.63 and 40.04; MTT, PC9/GR, value relative to control (=100), single replicate (PC9/GR cells; 100 (μM)): 37.64 and 39.62 and 40.69 and 41.33; IC50 (PC9/GR cells; Homo sapiens, gefitinib-resistant PC9/GR, MTT, 24-hour treatment, 0–100 μM, read-out: IC50, growth inhibition): 39000 nM; selectivity towards cells with the drug-resistant phenotype (PC9/GR cells; PC9/GR versus PC9): did not demonstrate significant selectivity
Cc1ccc(NC(=O)NCCc2cc(Br)c(O)c(Br)c2)cc1 [4n, 1-(3,5-dibromo-4-hydroxyphenethyl)-3-(p-tolyl)urea]	38.7 ± 8.1	
COCCOc1ccc(NC(=O)NCCc2cc(Br)c(O)c(Br)c2)cc1 [4o, 1-(3,5-dibromo-4-hydroxyphenethyl)-3-(4-(2-methoxyethoxy)phenyl)urea]	11.3 ± 26.2	
COc1c(Br)cc(CCNC(=O)Nc2ccc(OCCCN3CCOCC3)cc2)cc1Br [6g]		IC50 (p38α [2]): 11.7 ± 3 nM

— PMC12471852, “Design and Synthesis of Marine-Inspired Itampolin A Derivatives to Overcome Chemoresistance in NSCLC via Cholesterol Homeostasis Modulation” (Marine Drugs, 2025)
